Earlier results on one compound are cited in patent US20060188579A1, “Novel process” (priority 2003, published 2006).

For the data set the following is noted: particles produced by the method of WO00/38811; lowest value ('down to').

Take `Nc1cnc(-c2cc(Cl)cc(Cl)c2Cl)c(N)n1` [2,6-diamino-3-(2,3,5-trichlorophenyl)pyrazine]: the “dv(0.5)” value is 1.64 μm.
